# Measurements: PubChem BioAssay AID328 (DTP/NCI, 2004)
# Several values for one entry are separate records, joined by “and”; a condition that tells them apart may be missing. Equal entries are not always repeated. Inconclusive results and toxic doses are left out.
# Tested on: BDF1 mice, P388 leukemia ip, median survival T/C
# Assay: NCI In Vivo Anticancer Drug Screen. Data for tumor model P388 Leukemia (intraperitoneal) in B6D2F1 (BDF1) mice
# Details: endpoint: median survival time, higher = longer survival
# How it was run: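 Antitumour effect was judged in vivo: survival in drug-treated mice, normalised to that of vehicle-dosed controls, gives the reported T/C.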
# [1] = dose: 100.0 mg/kg/injection, schedule: Q01DX009 (ip), vehicle: saline
# [2] = dose: 200.0 mg/kg/injection, schedule: Q01DX009 (ip), vehicle: saline
# [3] = dose: 100.0 mg/kg/injection, schedule: Q01DX009 (ip), vehicle: saline with Tween-80
# [4] = dose: 200.0 mg/kg/injection, schedule: Q01DX009 (ip), vehicle: saline with Tween-80
# [5] = dose: 50.0 mg/kg/injection, schedule: Q01DX009 (ip), vehicle: saline with Tween-80
# [6] = dose: 100.0 mg/kg/injection, schedule: Q04DX003 (ip), vehicle: saline with Tween-80
# [7] = dose: 200.0 mg/kg/injection, schedule: Q04DX003 (ip), vehicle: saline with Tween-80
# [8] = dose: 400.0 mg/kg/injection, schedule: Q04DX003 (ip), vehicle: saline with Tween-80
compound,measurement,setting,value
CCc1ccc2c(c1)N(CCCN(CCCl)CCCl)c1ccccc1S2,T/C,"dose: 1.56 mg/kg/injection, schedule: Q04DX003 (ip), vehicle: saline with Tween-80",102 % of control and 104 % of control
same,T/C,"dose: 3.12 mg/kg/injection, schedule: Q04DX003 (ip), vehicle: saline with Tween-80",93 % of control and 104 % of control
same,T/C,"dose: 6.25 mg/kg/injection, schedule: Q04DX003 (ip), vehicle: saline with Tween-80",118 % of control
same,T/C,"dose: 12.5 mg/kg/injection, schedule: Q04DX003 (ip), vehicle: saline with Tween-80",163 % of control
NC(=O)CNCCS(=O)(=O)O,T/C,[1],91 % of control
same,T/C,"dose: 100.0 mg/kg/injection, schedule: Q04DX003 (ip), vehicle: saline",100 % of control
same,T/C,[2],87 % of control
same,T/C,"dose: 200.0 mg/kg/injection, schedule: Q04DX003 (ip), vehicle: saline",109 % of control
same,T/C,"dose: 400.0 mg/kg/injection, schedule: Q04DX003 (ip), vehicle: saline",104 % of control
Cc1nc2ccccc2c(Cl)c1C,T/C,"dose: 25.0 mg/kg/injection, schedule: Q01DX009 (ip), vehicle: Klucel (hydroxypropylcellulose) (HPC)",102 % of control
same,T/C,"dose: 50.0 mg/kg/injection, schedule: Q01DX009 (ip), vehicle: Klucel (hydroxypropylcellulose) (HPC)",105 % of control
same,T/C,"dose: 100.0 mg/kg/injection, schedule: Q01DX009 (ip), vehicle: Klucel (hydroxypropylcellulose) (HPC)",103 % of control
Cc1[nH]ncc1Br,T/C,[3],105 % of control
same,T/C,[4],98 % of control
same,T/C,"dose: 400.0 mg/kg/injection, schedule: Q01DX009 (ip), vehicle: saline with Tween-80",105 % of control
CCOC(=O)/C=C(C)/C=C/C=C(C)/C=C/c1c(C)cc(OC)c(C)c1C,T/C,[5],96 % of control
same,T/C,[3],91 % of control
same,T/C,[4],98 % of control
O=C(Nc1nnc(C(F)(F)F)s1)c1c(F)cccc1F,T/C,[5],92 % of control
CC(C)SC(=O)C[Si](C)(C)C,T/C,[6],166 % of control
same,T/C,[7],166 % of control
CN(C)CC(C)(C)CO,T/C,"dose: 25.0 mg/kg/injection, schedule: Q01DX009 (ip), vehicle: saline",96 % of control
same,T/C,"dose: 50.0 mg/kg/injection, schedule: Q01DX009 (ip), vehicle: saline",106 % of control
same,T/C,[1],101 % of control
same,T/C,[2],107 % of control
Cc1ccc(NC(=O)c2ccccc2Cl)cc1C,T/C,[6],104 % of control
same,T/C,[7],113 % of control
same,T/C,[8],109 % of control
COc1ccc(C(C)(C#N)Nc2ccccc2)cc1 (stereo not given),T/C,"dose: 50.0 mg/kg/injection, schedule: Q04DX003 (ip), vehicle: saline sonified",100 % of control
same,T/C,"dose: 100.0 mg/kg/injection, schedule: Q04DX003 (ip), vehicle: saline sonified",100 % of control
same,T/C,"dose: 200.0 mg/kg/injection, schedule: Q04DX003 (ip), vehicle: saline sonified",100 % of control
CCN(CC)c1ccc(Cc2ccc(N(CC)CC)cc2Br)c(Br)c1,T/C,"dose: 100.0 mg/kg/injection, schedule: Q04DX003 (ip), vehicle: Klucel (hydroxypropylcellulose) (HPC)",111 % of control
same,T/C,"dose: 200.0 mg/kg/injection, schedule: Q04DX003 (ip), vehicle: Klucel (hydroxypropylcellulose) (HPC)",111 % of control
same,T/C,"dose: 400.0 mg/kg/injection, schedule: Q04DX003 (ip), vehicle: Klucel (hydroxypropylcellulose) (HPC)",111 % of control
COC(=O)C1(C)CC2C(C)(CCC3(C)C4=CC=C5C(=CC(=O)C(O)=C5C)C4(C)CCC23C)CC1O (stereo not given),T/C,"dose: 25.0 mg/kg/injection, schedule: Q01DX001 (ip), vehicle: saline with Tween-80",109 % of control
same,T/C,"dose: 50.0 mg/kg/injection, schedule: Q01DX001 (ip), vehicle: saline with Tween-80",91 % of control
same,T/C,"dose: 100.0 mg/kg/injection, schedule: Q01DX001 (ip), vehicle: saline with Tween-80",104 % of control
NC1=C(Cl)C(=O)C(Cl)=C(Cl)C1=O,T/C,"dose: 0.39 mg/kg/injection, schedule: Q01DX009 (ip), vehicle: saline",102 % of control
same,T/C,"dose: 0.78 mg/kg/injection, schedule: Q01DX009 (ip), vehicle: saline",98 % of control
same,T/C,"dose: 1.56 mg/kg/injection, schedule: Q01DX009 (ip), vehicle: saline",99 % of control
O=S(=O)(Nc1ccccc1)c1ccc(C2CC3(Cl)C(Cl)=C(Cl)C2(Cl)C3(Cl)Cl)cc1 (stereo not given),T/C,[6],91 % of control
same,T/C,[7],91 % of control
same,T/C,[8],91 % of control
N/C(=N\O)c1cn(C2OC(CO)C(O)C2O)c2ncnc(N)c12 (stereo not given),T/C,"dose: 0.6 mg/kg/injection, schedule: Q01DX009 (ip), vehicle: Klucel (hydroxypropylcellulose) (HPC)",150 % of control
same,T/C,"dose: 1.25 mg/kg/injection, schedule: Q01DX009 (ip), vehicle: Klucel (hydroxypropylcellulose) (HPC)",168 % of control
same,T/C,"dose: 2.5 mg/kg/injection, schedule: Q01DX009 (ip), vehicle: Klucel (hydroxypropylcellulose) (HPC)",154 % of control
same,T/C,"dose: 5.0 mg/kg/injection, schedule: Q01DX009 (ip), vehicle: Klucel (hydroxypropylcellulose) (HPC)",172 % of control
COC(=O)c1cc(C)n(C)c(=O)c1CNS(=O)(=O)c1ccccc1,T/C,[6],98 % of control
same,T/C,[7],100 % of control
same,T/C,[8],98 % of control
